Measured values from patent publication EP0472573B1, “HERBICIDE RESISTANT MAIZE” (ZENECA LIMITED, priority 1989, dated 1990).
Read-outs that look alike come from different tables or passages of the source.

Tests used:
[1] = test system: ALS enzyme extracted from Mutant 9 (heterozygous); experiment: ALS enzyme assay, heterozygous Mutant 9; type: biochemical, Zea mays; conditions: for resistance group, Enzyme Assay: Mutant 9, groups Strong, Intermediate, Weak, Zero; for Fold Increase: fold increase in resistance vs wild type, heterozygous Mutant 9, 30 min; for IC50: ALS of heterozygous Mutant 9, read-out: ID50% (the source's name)
Procedure: (§1) Seeds of generation M₁BC₁ M₁BC₂ of the nine mutants were sprayed pre-emergence with the herbicide imazethapyr (PURSUIT) (Trade Mark) at a rate of 250 g/ha and grown in a growth chamber (16 hour day, 27°C; 8 hour night, 17°C). Plants were harvested after 11 days.
(§2) Four grams of leaf material were harvested from just above the first leaf axis and ground in a mortar and pestle in 20ml of a solution containing 40mM Tricine (Trade Mark), 10mM EDTA, 5mM pyruvate, 80 »M flavin adenine dinucleotide (FAD), 1mM dithiothreitol (DTT), pH 8, plus 0.8g Polyclar AT. The homogenate was pressed through four layers of muslin and centrifuged at 30,000g for 20 minutes.
(§3) The supernatant was brought to 65% saturation with ammonium sulphate, left to precipitate for 30 minutes and then centrifuged at 30.000g for 20 minutes. The pellet was resuspended in 2.5ml of 40mM Tricine, 10mM EDTA, 5mM pyruvate, 80»M FAD, 25% (v/v) glycerol, 1mM DTT, pH 8, and desalted into 3.5ml of 40mM Tricine, 10mM EDTA, 25% (v/v) glycerol, 1mM DTT, pH 8.
(§4) One hundred microlitres of the enzyme extract was used for each assay. Final reagent concentrations were: 120mM Tricine, 50mM pyruvate, 10mM MgCl₂, […], 93»M thiamine pyrophosphate (TPP), pH 8, in the presence or absence of a herbicide of interest, in a volume of 750 »l. Incubations were carried out at 37°C for 30 minutes. Reactions were stopped with 250»l of 1.84M sulphuric acid, and decarboxylation of the acetolactate carried out at 37°C for 75 minutes, or at 60°C for 30 minutes. Assay blanks had sulphuric acid added prior to the enzyme extract. To the samples and blanks 650»l of α-naphthol in 2.73M NaOH/0.16%(w/v) creatine were added followed by incubation at 37°C for 30 minutes. After centrifugation at 30,000g the optical density of the supernatant was read at 540nm.
(§5) The assay procedure described was carried out on ALS enzyme extracted from each of the nine mutants for the following herbicides: imazethapyr (PURSUIT) imazapyr (ARSENAL) imazaquin (SCEPTER) chlorsulfuron (GLEAN) chlorimuron (CLASSIC) […] (HARMONY) The enzyme activity graphs are given as Figures 3 to 8. In addition, homozygous lines of mutants 1 and 2 which were selected from generation M₁BC₁S₂, were also tested against the same group of herbicides and against representatives of the triazolopyrimidines and phenoxypyrimidines. The chemical structures of these herbicides are shown in Figure 2 of the accompanying drawings.
(§6) From the enzyme assay data it is possible to derive, as a measure of the degree of inhibition the factor ID50% for each mutant and for each herbicide. This factor is indicative of the herbicide concentration which gives 50% inhibition of the ALS activity in comparison with the wild-type control. It is also possible to derive the fold increase in resistance.

Mutant 1 plants = experiment: Cross-resistance testing (glasshouse dose response), Mutant 1; type: in vivo, Zea mays; conditions: pre-emergence spray, assessed after four weeks growth
Source text: (§7) The seeds used in this screen were populations of mixed tolerant and sensitive seed, segregating 1:1, derived from each of the heterogygous, tolerant mutants crossed with homozygous, sensitive UE95. All of the tolerant progeny are heterozygous for tolerance. Each of the mutants identified above were used except mutant 4. The controls were seed of self-pollinated UE95 which was pollinated in the same year as the tolerant lines.
(§8) One litre of compost was placed in each seed tray of dimensions 19cm x 11cm x 5cm deep and firmed down flat. Two furrows 1 cm deep were drawn in the surface of the compost in each tray and six seeds were sown in each furrow (total twelve seeds per tray). Some trays were sown with 24 seeds, in which case three furrows were made and 8 seeds sown per furrow.
(§9) In each test each tray contained either the seed of one mutant or of the UE95 control for each herbicide application rate and for the untreated control.
(§10) Five different types of ALS-inhibitor herbicides were tested on the mutants plus imazethapyr (PURSUIT) as a comparison. Four rates of each were applied; approximately 0.1x, 0.5x, 1x and 4x the estimated field rates for each herbicide. The rates are the same for mutant 3 to 10 but higher rates for chlorimuron (CLASSIC) and lower rates for chlorsulfuron (GLEAN) were applied to mutants 1 and 2.
(§11) The rates of application used in the screening tests were as follows: chlorimuron (CLASSIC) 4,20,40,160 g/Ha (mutants 1 and 2); and, 8,40,80,320 g/Ha (mutants 3 to 10); chlorsulfuron (GLEAN) 5,25,50,200 g/Ha (mutants 1 and 2); and, 1,5,10,40 g/Ha (mutants 3 to 10); imazaquin (SCEPTER) 30,150,300,1200 g/Ha; triazolopyrimidine 5,25,50,200 g/Ha; phenoxypyrimidine 10,50,100,400 g/Ha; and, imazethapyr (PURSUIT) 30,150,300,1200 g/Ha The triazolopyrimidine and phenoxypyrimidine were formulated in an adjuvant wetting agent known as JF5969 and diluted with water to make a final concentration of 10% JF5969. The remaining compounds were diluted with water only.
(§12) The spray jet and parameters were as decribed above under "SCREENING". After spraying, the seeds were covered with 0.5 litre of compost and firmed down flat (2.5cm covering) and grown under the conditions described under "SCREENING" above.
(§13) Visual assessments were made of the plants after four weeks growth. Each plant was scored on a scale of zero to 5 and the height measured from soil surface to the tallest leaf tip. The scoring scale was as follows: 0 - 0 to 10% damage (little or no herbicidal effect) 1 - 11 to 25% damage 2 - 26 to 50% damage 3 - 51 to […] 4 - 81 to 95% damage 5 - 96 to 100% damage (complete death of the plant) In carrying out these assessments, plants which were obviously of the sensitive phenotype were ignored (approximately 50% of the plants). […]

[2] = biological target: ALS enzyme extracted from Mutant 3 (heterozygous); experiment: ALS enzyme assay, heterozygous Mutant 3; type: biochemical, Zea mays; conditions: for IC50: ALS of heterozygous Mutant 3, read-out: ID50% (the source's name); for resistance group, Enzyme Assay: Mutant 3, groups Strong, Intermediate, Weak, Zero; for Fold Increase: fold increase in resistance vs wild type, heterozygous Mutant 3, 30 min
Procedure: as §1, §2, §3, §4, §5, §6

[3] = biological target: ALS enzyme extracted from Mutant 8 (heterozygous); experiment: ALS enzyme assay, heterozygous Mutant 8; type: biochemical, Zea mays; conditions: for IC50: ALS of heterozygous Mutant 8, read-out: ID50% (the source's name); for resistance group, Enzyme Assay: Mutant 8, groups Strong, Intermediate, Weak, Zero; for Fold Increase: fold increase in resistance vs wild type, heterozygous Mutant 8, 30 min
Procedure: as §1, §2, §3, §4, §5, §6

Mutant 5 plants = experiment: Cross-resistance testing (glasshouse dose response), Mutant 5; type: in vivo, Zea mays; conditions: pre-emergence spray, assessed after four weeks growth
Source text: as §7, §8, §9, §10, §11, §12, §13

[4] = biological target: ALS (acetolactate synthase), Wild type; experiment: ALS enzyme assay, wild-type control; type: biochemical, Zea mays; conditions: read-out: ID50% (the source's name)
Procedure: as §1, §2, §3, §4, §5, §6

Mutant 2 plants = experiment: Cross-resistance testing (glasshouse dose response), Mutant 2; type: in vivo, Zea mays; conditions: pre-emergence spray, assessed after four weeks growth
Source text: as §7, §8, §9, §10, §11, §12, §13

[5] = herbicide concentration giving 50% inhibition of ALS activity

Structure (SMILES)	resistance group, Enzyme Assay [1]	Fold Increase [1]	resistance group, Dose Response (Mutant 1 plants)	IC50 [2] [µM]	resistance group, Enzyme Assay [2]	Fold Increase [2]	IC50 [3] [µM]	resistance group, Enzyme Assay [3]	Fold Increase [3]	resistance group, Dose Response (Mutant 5 plants)	IC50 [4] [µM]	resistance group, Dose Response (Mutant 2 plants)	IC50 [1] [µM]	IC50 [4, 5] [µM]
COc1cc(Cl)nc(NC(=O)NS(=O)(=O)c2ccccc2C(=O)O)n1 [Chlorimuron, chlorimuron]	Weak	3	Zero	0.015	Weak	4	0.01	Zero	3	Zero	0.0037	Zero		
COc1nc(C)nc(NC(=O)NS(=O)(=O)c2ccccc2Cl)n1 [Chlorsulfuron, chlorsulfuron]	Weak	3	Zero	0.035	Weak	2	0.075	Weak	4	Weak	0.0185	Zero	0.05	
CC(C)C1(C)N=C(c2nc3ccccc3cc2C(=O)O)NC1=O (stereo not drawn) [Imazaquin, imazaquin]	Strong	83	Strong	1.5	Weak	2	150	Strong	250	Intermediate		Strong	50	0.6
CCc1cnc(C2=NC(=O)C(C)(C(C)C)N2)c(C(=O)O)c1 (stereo not drawn) [Imazethapyr, 5-ethyl-2-(5-iso-propyl-5-methyl-4-oxo-2-imidazolin-2-yl) nicotinic acid]	Strong	283	Strong	2.5	Weak	2	> 1000	Strong	>660	Strong		Intermediate	425	1.5
